Data reported in US9174951B2, “Glucose transporter inhibitors” (The Ohio State University Research Foundation, priority 2012, dated 2015).

Tests used:
LNCaP cells [1] = test: [3H]2-DG glucose uptake assay in LNCaP cells; assay type: cell-based, human; details: for IC50: Homo sapiens, LNCaP, Krebs-Ringer phosphate buffer, 37° C., 30 min of drug treatment, read-out: IC50 in blocking [3H]2-DG uptake into LNCaP cells; for inhibition of [3H]2-DG uptake into LNCaP cells (screening, in words): each at 5 μM, 30 min of exposure
Procedure: Screening of the focused compound library to identify lead glucose uptake inhibitors.
Glucose Uptake Assay. LNCaP cells were seeded in six-well plates (3×10^5 cells/well) for 24 h. […] The cells were lysed in […] lysis buffer (10 mM Tris-HCl pH 8.0, 0.1% SDS) and aliquots were taken for measurement of radioactivity using a scintillation counter (Beckman LS6500).

LNCaP cells [2] = test: MTT cell viability assay, LNCaP; assay type: cell-based, human; details: Homo sapiens, LNCaP, 72 h, MTT, 10% FBS
Procedure: Cell Viability Assay. Cell viability was determined using the 3-(4,5-dimethylthiazol-2-yl)-2,5-diphenyltetrazolium bromide (MTT) assay. Cancer cells were seeded at 5000 cells/well and normal cells were seeded at 8000 cells/well in 96-well plates and incubated in 10% FBS-supplemented medium for 24 h. Cells were then treated with individual agents for 72 h. Drug-containing medium was replaced with medium containing MTT (0.5 mg/mL), followed by incubation at 37° C. for 1 h. After removal of medium, the reduced MTT dye in each well was solubilized in 100 μL of DMSO and absorbance at 570 nm was measured.
Compound 30 was evaluated for antiproliferative activity in panels of different human cancer cells lines, including those of prostate, breast and pancreatic cancers. In all experiments, cells were treated with a range of concentrations of Compound 30 in the presence of 10% fetal bovine serum (FBS). Cell viability was then determined after 72 h of treatment using the 3-(4,5-dimethylthiazol-2-yl)-2,5-diphenyltetrazolium bromide (MTT) assay. […] It is noteworthy that despite this high antiproliferative potency, normal human prostate epithelial cells (PrECs) were resistant to the cytotoxic effect of Compound 30 even at 10 μM.

| IC50 (LNCaP cells [1]) [µM] | IC50 (LNCaP cells [2]) [µM] | Compound | inhibition of [3H]2-DG uptake into LNCaP cells (screening, in words) (LNCaP cells [1]) |
| --- | --- | --- | --- |
| 78 | 60 | CC1(COc2ccc(CC3SC(=O)NC3=O)cc2)CCCCC1 (stereo not shown) [Compound 1, ciglitazone, reference compound] |  |
| 52 | 28 | CC1(COc2ccc(/C=C3\SC(=O)NC3=O)cc2)CCCCC1 [Compound 2, (Z)-5-(4-[(1-methylcyclohexyl)methoxy]benzylidene)-thiazolidine-2,4-dione, reference compound] |  |
| 9 | 6 | CC1(CN2C(=O)S/C(=C\c3ccc(O)c(C(F)(F)F)c3)C2=O)CCCCC1 [Compound 4, (Z)-5-(4-hydroxy-3-(trifluoromethyl)benzylidene)-3-((1-methylcyclohexyl)methyl)thiazolidine-2,4-dione, reference compound] |  |
| 3.5 | 2.2 | O=C1SC(=Cc2ccc(O)c(C(F)(F)F)c2)C(=O)N1CC(CC(F)(F)F)CC(F)(F)F [Compound 28, 5-(4-Hydroxy-3-trifluoromethyl-benzylidene)-3-[4,4,4-trifluoro-2-(2,2,2-trifluoro-ethyl)-butyl]-thiazolidine-2,4-dione] | substantially improved potency relative to compound 5 |
|  |  | O=C1SC(=Cc2ccc(O)c(C(F)(F)F)c2)C(=O)N1CC(F)(CC(F)(F)F)CC(F)(F)F [Compound 29, 5-(4-Hydroxy-3-trifluoromethyl-benzylidene)-3-[2,4,4,4-tetrafluoro-2-(2,2,2-trifluoro-ethyl)-butyl]-thiazolidine-2,4-dione] | substantially improved potency relative to compound 5 |
